The values that follow come from patent US5436137A, “DNA sequence which encodes a peptide capable of promoting acrosome reaction” (Oregon Regional Primate Research Center, priority 1993, dated 1995).

The subject of assay [1] is monkey sperm. As to the kind of experiment: acrosome reaction in capacitated monkey sperm (acrosome specific monoclonal antibody, FITC fluorescence). The assay is classed as cell-based. The settings on record: bombesin at a concentration as low as 5 nM, present during 60 minutes capacitation, FIG. 5. As to the method:
For monkeys, sperm was collected, washed twice in balanced salts, resuspended in lactate/bicarbonate and dibutyryl cAMP, and then incubated for 60 minutes. […] See Wolf, D. P. et al. Mol. Reprod. Dev. 27:261-280 (1990); Lanzendorf, S. E. et al. Mol. Reprod. Dev. 25:61-66 (1990); and Wolf D. P. et al. Biol. Reprod. 41:335-346 (1989). All of these three publications are hereby incorporated by reference.
(§1) To measure the effects of bombesin on the acrosome reaction, capacitation was conducted in the presence or absence of bombesin. After incubation, samples of sperm were removed to determine the percentage of sperm which had undergone the acrosome reaction as measured with an acrosome specific monoclonal antibody and FITC fluorescence [see Wolf, D. P. Am. J. Reprod. Immunol. 20:106-113 (1989), which is hereby incorporated by reference].

Assay [2] relates to human sperm. Nature of the assay: acrosome reaction in capacitated human sperm (acrosome specific monoclonal antibody, FITC fluorescence). Format: cell-based. The settings on record: bombesin at a concentration as low as 5 nM, added after overnight capacitation, FIG. 5. As to the method:
as §1
For human sperm, capacitation was achieved by overnight incubation of sperm in balanced salt and 0.3% bovine serum albumin, after which bombesin was added to induce the acrosome reaction.

Consider `CSCC[C@H](NC(=O)[C@H](CC(C)C)NC(=O)[C@H](Cc1cnc[nH]1)NC(=O)CNC(=O)[C@@H](NC(=O)[C@H](C)NC(=O)[C@H](Cc1c[nH]c2ccccc12)NC(=O)[C@H](CCC(N)=O)NC(=O)[C@H](CC(N)=O)NC(=O)CNC(=O)[C@H](CC(C)C)NC(=O)[C@H](CCCN=C(N)N)NC(=O)[C@H](CCC(N)=O)NC(=O)[C@@H]1CCC(=O)N1)C(C)C)C(N)=O` [bombesin], for which the “increase in the acrosome reaction” value in assay [1] and in assay [2] was 2 fold throughout.
